This experiment concerns Bovine cardiac myofibrils. Briefly: In vitro model of dose-dependent myofibril ATPase modulation (AC1.4, pyruvate kinase/lactate dehydrogenase-coupled ATPase assay at pCa25). The settings on record: concentration at which ATPase activity was 1.4-fold higher than the bottom of the dose curve, mean of a minimum of two independent tests. Type of experiment: biochemical. In a few lines: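 Bovine cardiac myofibrils, detergent-treated; 0.25-1.0 mg/ml. Buffer: K-PIPES 12 mM, MgCl2 2 mM, DTT 1 mM, BSA 0.1 mg/ml, pH 6.80, 22° C; Ca2+ set by EGTA/CaCl2. ATP 1 mM, NADH/PEP-coupled, A340. 4-parameter fit; n≥2.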

`C[C@H]1[C@@H](C(=O)N2CCC[C@@H]2C(=O)NCc2ccc(C(F)(F)F)cc2)CCCN1S(=O)(=O)N1CC(C#N)C1` [Example 271, 1-(((2S,3S)-1-((3-cyano-1-azetidinyl)sulfonyl)-2-methyl-3-piperidinyl)carbonyl)-N-(4-(trifluoromethyl)benzyl)-D-prolinamide] yielded an AC1.4 of 0.6874 µM.
`N#CC1CN(S(=O)(=O)N2CCC[C@H](C(=O)N3CCC[C@@H]3C(=O)NCc3ccc(F)c(Cl)c3)C2)C1` [Example 272, N-(3-chloro-4-fluorobenzyl)-1-(((3S)-1-((3-cyano-1-azetidinyl)sulfonyl)-3-piperidinyl)carbonyl)-D-prolinamide] returned an AC1.4 of 0.6904 µM.
The figure for `CS(=O)(=O)c1cccc(C(=O)N2C[C@@H](F)C[C@@H]2C(=O)N[C@@H](c2ccc(C(F)(F)F)c(F)c2)C2COC2)c1` [Example 273, (4S)-4-fluoro-N-((R)-(3-fluoro-4-(trifluoromethyl)phenyl)(3-oxetanyl)methyl)-1-(3-(methylsulfonyl)benzoyl)-D-prolinamide] is 0.6841 µM.
The result for `O=C(NCc1ccc(C(F)(F)F)cc1)[C@H]1CCCN1C(=O)[C@H]1CCCN(S(=O)(=O)N2CC(C(F)F)C2)C1` [Example 274, 1-(((3S)-1-((3-(difluoromethyl)-1-azetidinyl)sulfonyl)-3-piperidinyl)carbonyl)-N-(4-(trifluoromethyl)benzyl)-D-prolinamide] reads 0.6977 µM.
The result for `CCS(=O)(=O)c1cccc(C(=O)N2[C@@H](C(=O)N[C@@H](c3ccc(C(F)(F)F)cc3)C3COC3)C[C@H]3C[C@H]32)c1` [Example 275, (1R,3R,5R)-2-(3-(ethylsulfonyl)benzoyl)-N-((R)-3-oxetanyl(4-(trifluoromethyl)phenyl)methyl)-2-azabicyclo[3.1.0]hexane-3-carboxamide] reads 0.6922 µM; that for `N#CC1CN(S(=O)(=O)N2CCC[C@H](C(=O)N3CCC[C@@H]3C(=O)NC3CC(CO)c4ccccc43)C2)C1` (stereo partly drawn) [Example 276, (2R)-1-((S)-1-((3-cyanoazetidin-1-yl)sulfonyl)piperidine-3-carbonyl)-N-(3-(hydroxymethyl)-2,3-dihydro-1H-inden-1-yl)pyrrolidine-2-carboxamide], 0.7014 µM; that for `CS(=O)(=O)N1CCC[C@H](C(=O)N2[C@@H](C(=O)N[C@@H](c3cc(F)c(Cl)cc3F)C3CC3)C[C@H]3C[C@H]32)C1` [Example 277, (1R,3R,5R)-N-((R)-(4-chloro-2,5-difluorophenyl)(cyclopropyl)methyl)-2-(((3S)-1-(methylsulfonyl)-3-piperidinyl)carbonyl)-2-azabicyclo[3.1.0]hexane-3-carboxamide], 0.7027 µM.
In the case of `CS(=O)(=O)c1cccc(C(=O)N2[C@@H](C(=O)N[C@@H](c3cc(F)c(Cl)c(F)c3)C3CC3)C[C@H]3C[C@H]32)c1` [Example 278, (1R,3R,5R)-N-((R)-(4-chloro-3,5-difluorophenyl)(cyclopropyl)methyl)-2-(3-(methylsulfonyl)benzoyl)-2-azabicyclo[3.1.0]hexane-3-carboxamide], the AC1.4 amounted to 0.7012 µM.
`NS(=O)(=O)c1cccc(C(=O)N2C[C@@H](F)C[C@@H]2C(=O)N[C@@H](c2cc(F)c(Cl)cc2F)C2CC2)c1` [Example 280, (4S)-N-((R)-(4-chloro-2,5-difluorophenyl)(cyclopropyl)methyl)-4-fluoro-1-(3-sulfamoylbenzoyl)-D-prolinamide] registered an AC1.4 of 0.713 µM.
For `O=C(N[C@@H](c1ccc(C(F)(F)F)cc1F)C1CC1)[C@H]1CCCN1C(=O)c1cccc(S(=O)(=O)CC(F)(F)F)c1` [Example 281, N-((R)-cyclopropyl(2-fluoro-4-(trifluoromethyl)phenyl)methyl)-1-(3-((2,2,2-trifluoroethyl)sulfonyl)benzoyl)-D-prolinamide], the AC1.4 turned out to be 0.7104 µM.
The figure for `O=C(N[C@@H](c1cc(F)c(Cl)cc1F)C1COC1)[C@H]1C[C@H]2C[C@H]2N1C(=O)c1cncc(C(F)(F)F)c1` [Example 282, (1R,3R,5R)-N-((R)-(4-chloro-2,5-difluorophenyl)(3-oxetanyl)methyl)-2-((5-(trifluoromethyl)-3-pyridinyl)carbonyl)-2-azabicyclo[3.1.0]hexane-3-carboxamide] is 0.7195 µM.
On to `N#CC1CN(S(=O)(=O)c2cccc(C(=O)N3CCC[C@@H]3C(=O)NCc3ccc(C4CC4)cc3)c2)C1` [Example 283, 1-((3-((3-cyano-1-azetidinyl)sulfonyl)phenyl)carbonyl)-N-(4-cyclopropylbenzyl)-D-prolinamide], for which the AC1.4 is 0.7288 µM.
In turn, `N#CC1CN(S(=O)(=O)N2CCC[C@H](C(=O)N3CCC[C@@H]3C(=O)NCc3ccc(F)cc3Cl)C2)C1` [Example 284, N-(2-chloro-4-fluorobenzyl)-1-(((3S)-1-((3-cyano-1-azetidinyl)sulfonyl)-3-piperidinyl)carbonyl)-D-prolinamide] yielded an AC1.4 of 0.7331 µM.
The figure for `Cc1ccc([C@@H](C)NC(=O)[C@H]2CCCN2C(=O)[C@H]2CCCN(S(=O)(=O)N3CC(C#N)C3)C2)cc1` [Example 285, 1-(((3S)-1-((3-cyano-1-azetidinyl)sulfonyl)-3-piperidinyl)carbonyl)-N-((1R)-1-(4-methylphenyl)ethyl)-D-prolinamide] is 0.7351 µM.
The figure for `CS(=O)(=O)N1CC(F)(c2cccc(C(=O)N3CCC[C@@H]3C(=O)N[C@@H](c3ccc(C(F)(F)F)cc3F)C3CC3)c2)C1` [Example 286, N-((R)-cyclopropyl(2-fluoro-4-(trifluoromethyl)phenyl)methyl)-1-(3-(3-fluoro-1-(methylsulfonyl)-3-azetidinyl)benzoyl)-D-prolinamide] is 0.7437 µM; for `Cc1c(F)cccc1CNC(=O)[C@H]1CCCN1C(=O)[C@H]1CCCN(S(=O)(=O)N2CC(C#N)C2)C1` [Example 288] it is 0.7452 µM.
The molecule `O=C(N[C@@H](c1cc(F)c(C(F)(F)F)cc1F)C1CC1)[C@H]1C[C@H]2C[C@H]2N1C(=O)c1cc(C(F)(F)F)ccn1` [Example 289, (1R,3R,5R)-N-((R)-cyclopropyl(2,5-difluoro-4-(trifluoromethyl)phenyl)methyl)-2-((4-(trifluoromethyl)-2-pyridinyl)carbonyl)-2-azabicyclo[3.1.0]hexane-3-carboxamide] displayed an AC1.4 of 0.7506 µM.
Turning to `N#CC1CN(S(=O)(=O)N2CCN[C@H](C(=O)N3CCC[C@@H]3C(=O)NCc3ccc(Cl)cc3F)C2)C1` [Example 290, N-(4-chloro-2-fluorobenzyl)-1-(((2S)-4-((3-cyano-1-azetidinyl)sulfonyl)-2-piperazinyl)carbonyl)-D-prolinamide], the AC1.4 worked out at 0.7542 µM.
In turn, `C[C@@H](NC(=O)[C@H]1CCCN1C(=O)[C@@H]1CN(S(=O)(=O)N2CC(C#N)C2)CCO1)c1ccc(Cl)cc1` [Example 291, N-((1R)-1-(4-chlorophenyl)ethyl)-1-(((2S)-4-((3-cyano-1-azetidinyl)sulfonyl)-2-morpholinyl)carbonyl)-D-prolinamide] returned an AC1.4 of 0.756 µM.
The result for `CS(=O)(=O)c1cncc(C(=O)N2CCCC[C@@H]2C(=O)N[C@@H](c2cc(F)c(Cl)cc2F)C2CC2)c1` [Example 292, (2R)-N-((R)-(4-chloro-2,5-difluorophenyl)(cyclopropyl)methyl)-1-((5-(methylsulfonyl)-3-pyridinyl)carbonyl)-2-piperidinecarboxamide] reads 0.7577 µM.

Source of the values: US11780826B2 (Amgen Inc., priority 2017, dated 2023).
